Measured values as given in patent publication US8071776B2, “Thienopyridines as allosteric potentiators of the M4 muscarinic receptor” (Eli Lilly and Company, priority 2004, dated 2011).
Values joined by “and” are separate entries in the source; they are usually repeats but may differ in a detail not shown here. Equal entries are not always repeated. Values belong to the compound of their own block, whether it stands above or below them.

Columns and labels:
Male Fisher-344 rats = assay: Conditioned avoidance response; format: in vivo, rat
Text: The apparatus is a Coulbourn Instruments shuttle operant chamber. Each session equals a total of 50 trials, presented on a 30 second inter-trial interval, and each trial begins with simultaneous illumination of a houselight and rising of a guillotine door. The rat is given 10 seconds to cross over to the other side (an avoidance response) before a 1 mA footshock is initiated. The shock remains on until the rat crosses over to the other side (an escape response) or 10 seconds has elapsed (an escape failure). […] The number of avoidance, escape and escape failure responses during each session is recorded and used for analysis.
Each test compound is administered orally 2 hours prior to testing. Oxo (0.03 mg/kg) is administered subcutaneously 30 minutes prior to testing. Data are analyzed via a one-way (within-group design) Analysis of Variance (ANOVA). In cases of a significant ANOVA (p<0.05), post-hoc comparisons may be made in which compound doses are compared back to the Oxo alone group (paired t-test).

hM4 receptors = molecular target: T1, hM4 receptors (Homo sapiens, UniProt P08173); assay: Calcium mobilization (FLIPR), ACh concentration-response curves, AV12 Gα15 hM4 cells; format: cell-based
T1 construct: expressed in transfected cells
T1 sequence (P08173 1-479): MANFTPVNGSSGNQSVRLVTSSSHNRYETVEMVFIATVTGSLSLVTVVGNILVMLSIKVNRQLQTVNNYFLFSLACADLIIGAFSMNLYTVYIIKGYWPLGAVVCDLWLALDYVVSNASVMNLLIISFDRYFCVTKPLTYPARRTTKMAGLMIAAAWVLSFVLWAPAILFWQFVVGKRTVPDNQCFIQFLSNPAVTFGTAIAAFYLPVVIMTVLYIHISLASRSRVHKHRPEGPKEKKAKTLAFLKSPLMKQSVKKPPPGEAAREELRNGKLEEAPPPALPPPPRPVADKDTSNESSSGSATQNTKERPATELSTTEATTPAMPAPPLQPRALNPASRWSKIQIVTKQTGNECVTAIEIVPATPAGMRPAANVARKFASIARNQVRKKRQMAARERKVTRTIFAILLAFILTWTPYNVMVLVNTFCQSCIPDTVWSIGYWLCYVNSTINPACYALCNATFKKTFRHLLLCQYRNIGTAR
Experimental: (§1) Automated multiple compound additions are timed by computer program. Cells are pre-incubated with increasing concentration of compounds.

hM1 receptors = molecular target: T2, hM1 receptors (Homo sapiens, UniProt P11229); assay: Calcium mobilization (FLIPR), ACh concentration-response curves, CHO hM1 cells; format: cell-based; details: CHO cells stably expressing hM1
T2 construct: expressed in transfected cells
T2 sequence (P11229 1-460): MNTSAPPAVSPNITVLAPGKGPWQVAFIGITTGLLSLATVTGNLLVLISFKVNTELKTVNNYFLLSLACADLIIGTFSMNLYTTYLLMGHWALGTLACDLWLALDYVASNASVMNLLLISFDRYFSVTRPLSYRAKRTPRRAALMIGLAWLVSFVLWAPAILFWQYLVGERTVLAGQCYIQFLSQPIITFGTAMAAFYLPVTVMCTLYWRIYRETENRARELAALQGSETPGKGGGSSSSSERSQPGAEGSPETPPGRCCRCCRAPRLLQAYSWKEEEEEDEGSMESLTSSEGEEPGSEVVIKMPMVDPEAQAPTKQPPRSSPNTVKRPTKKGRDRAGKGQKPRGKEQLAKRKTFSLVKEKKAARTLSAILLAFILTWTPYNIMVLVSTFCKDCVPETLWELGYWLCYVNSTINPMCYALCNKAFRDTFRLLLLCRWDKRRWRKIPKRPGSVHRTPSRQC
Experimental: as §1

hM3 receptors = molecular target: T3, hM3 receptors (Homo sapiens, UniProt P20309); assay: Calcium mobilization (FLIPR), ACh concentration-response curves, CHO hM3 cells; format: cell-based; details: CHO cells stably expressing hM3
T3 construct: expressed in transfected cells
T3 sequence (P20309 whole entry): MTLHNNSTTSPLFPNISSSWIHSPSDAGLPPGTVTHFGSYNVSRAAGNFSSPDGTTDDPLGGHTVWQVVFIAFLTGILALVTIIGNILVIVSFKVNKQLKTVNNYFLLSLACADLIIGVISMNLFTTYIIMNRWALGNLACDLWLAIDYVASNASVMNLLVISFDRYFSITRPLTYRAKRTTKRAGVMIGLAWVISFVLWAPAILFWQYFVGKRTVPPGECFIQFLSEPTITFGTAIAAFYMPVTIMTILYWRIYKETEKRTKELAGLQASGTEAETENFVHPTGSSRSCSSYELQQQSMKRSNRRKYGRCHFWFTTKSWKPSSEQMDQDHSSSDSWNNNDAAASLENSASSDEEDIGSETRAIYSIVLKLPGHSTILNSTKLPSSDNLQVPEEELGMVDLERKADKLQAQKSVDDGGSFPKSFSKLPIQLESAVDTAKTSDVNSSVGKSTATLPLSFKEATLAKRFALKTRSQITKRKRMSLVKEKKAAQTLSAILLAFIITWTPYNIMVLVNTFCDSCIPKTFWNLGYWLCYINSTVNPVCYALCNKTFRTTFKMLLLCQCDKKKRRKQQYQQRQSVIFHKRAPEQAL
Experimental: as §1

hM5 receptors = molecular target: T4, hM5 receptors (Homo sapiens, UniProt P08912); assay: Calcium mobilization (FLIPR), ACh concentration-response curves, CHO hM5 cells; format: cell-based; details: CHO cells stably expressing hM5
T4 construct: expressed in transfected cells
T4 sequence (P08912 1-532): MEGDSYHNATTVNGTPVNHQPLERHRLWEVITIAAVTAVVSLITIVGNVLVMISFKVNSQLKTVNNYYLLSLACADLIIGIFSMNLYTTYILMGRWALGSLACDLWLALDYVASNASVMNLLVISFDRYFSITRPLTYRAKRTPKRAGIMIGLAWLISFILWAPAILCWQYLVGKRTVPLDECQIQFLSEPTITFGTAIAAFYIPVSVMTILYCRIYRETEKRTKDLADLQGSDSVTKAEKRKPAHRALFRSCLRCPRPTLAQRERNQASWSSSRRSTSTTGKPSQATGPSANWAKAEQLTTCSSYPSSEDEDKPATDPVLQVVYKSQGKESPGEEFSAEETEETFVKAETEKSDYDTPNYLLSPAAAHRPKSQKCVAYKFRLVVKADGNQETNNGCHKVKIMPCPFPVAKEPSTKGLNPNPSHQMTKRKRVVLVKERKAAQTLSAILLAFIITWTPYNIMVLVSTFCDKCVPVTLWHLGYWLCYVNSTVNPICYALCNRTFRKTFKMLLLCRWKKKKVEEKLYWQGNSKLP
Experimental: as §1

hM2 receptors = hM2 receptors (Homo sapiens, UniProt P08172); details: AV12 Gα15 hM2; too modest to be accurately estimated
Chain of hM2 receptors (P08172 whole entry): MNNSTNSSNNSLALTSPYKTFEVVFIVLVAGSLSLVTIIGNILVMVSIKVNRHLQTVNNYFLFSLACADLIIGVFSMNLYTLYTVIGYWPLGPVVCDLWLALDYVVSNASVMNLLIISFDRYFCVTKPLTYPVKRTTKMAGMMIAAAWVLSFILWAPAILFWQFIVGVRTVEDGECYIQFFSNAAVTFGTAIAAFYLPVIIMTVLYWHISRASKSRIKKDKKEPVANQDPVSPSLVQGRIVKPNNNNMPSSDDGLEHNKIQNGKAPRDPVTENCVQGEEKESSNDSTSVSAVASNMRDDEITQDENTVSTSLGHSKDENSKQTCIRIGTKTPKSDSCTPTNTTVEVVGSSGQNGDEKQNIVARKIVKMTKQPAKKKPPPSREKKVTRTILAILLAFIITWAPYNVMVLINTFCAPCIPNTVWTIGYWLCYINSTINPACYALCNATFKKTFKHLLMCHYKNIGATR
Experimental: Using a calcium-sensitive fluorescent dye, agonist or potentiation activity of a given compound can be detected in a single assay using a Fluorescence Light Imaging Plate Reader (FLIPR) instrument. Cells are plated in Poly-D-Lysine coated black plates/clear bottom (Becton Dickinsons) at 40,000 cells per ml (100 μl/well) in growth media 24 hours prior to running the assay. The medium is removed before the addition of 50 μl fluorescence dye solution (HBSS containing 20 mM Hepes, 10 μM Fluo-3-AM, 0.05% pluronic acid F127; supplemented with 2.5 mM probenecid for CHO cell assays). The cells are incubated with the dye for 75 minutes before replacing with assay buffer (20 mM Hepes in Hanks balanced salt solution (Gibco); supplemented with 2.5 mM probenecid for CHO cells). The plate is transferred to the FLIPR machine (Molecular Devices) for fluorescence recordings. The cells are periodically excited by 488 nm light, and the emitted fluorescent light passed through a 510-570 nm filter and then detected by a cooled CCD camera. Automated multiple compound additions are timed by computer program. Cells are pre-incubated with increasing concentration of compounds. After 2 minutes, a range of acetylcholine concentrations is added to each concentration of compound. […]

Compound: Cc1c(Cl)c(OCCN2CCOCC2)nc2sc(C(=O)NC3CC3)c(N)c12 [Example 6, 3-Amino-5-chloro-4-methyl-6-(2-morpholin-4-yl-ethoxy)-thieno[2,3-b]pyridine-2-carboxylic acid cyclopropylamide]
Percent Avoidance Response (Mean ± S.E.M.), Oxo + Test Compound 10 mg/kg (Male Fisher-344 rats; test compound 10 mg/kg orally 2 hours prior, Oxo 0.03 mg/kg s.c. 30 minutes prior): 90 ± 3.4%

Compound: Cc1c(Cl)c(OCC(=O)N2CCN(C)CC2)nc2sc(C(=O)NC3CC3)c(N)c12 [Example 10]
Percent Avoidance Response (Mean ± S.E.M.), Oxo + Test Compound 10 mg/kg (Male Fisher-344 rats; rat, in vivo): 85 ± 5.3%

Compound: oxotremorine sesquifumarate
Percent Avoidance Response (Mean ± S.E.M.), Oxo alone (Male Fisher-344 rats; Oxo 0.03 mg/kg subcutaneously 30 minutes prior to testing, first Oxo alone group): 93 ± 1.8% and 93 ± 1.2% and 89 ± 3.8% and 92 ± 1.5% | Percent Avoidance Response (Mean ± S.E.M.), Oxo alone (retest) (Male Fisher-344 rats; retest of Oxo alone, 0.03 mg/kg subcutaneously 30 minutes prior to testing, 0.03 mg/kg): 91 ± 0.9% and 90 ± 2.5% and 89 ± 3.2% and 91 ± 2.0%

Compound: Cc1c(Cl)c(OCCN2CCOCC2)nc2sc(C(=O)NC3CC3)c(N)c12.Cl [Example 28, 3-Amino-5-chloro-4-methyl-6-(2-morpholin-4-yl-ethoxy)-thieno[2,3-b]pyridine-2-carboxylic acid cyclopropylamide hydrochloride]
Percent Avoidance Response (Mean ± S.E.M.), Oxo + Test Compound 30 mg/kg (Male Fisher-344 rats; test compound 30 mg/kg orally 2 hours prior, Oxo 0.03 mg/kg s.c. 30 minutes prior): 84 ± 6.3%

Kd (hM4 receptors): 200 ± 42 nM | potentiation of acetylcholine versus carbachol (hM4 receptors; FLIPR, both non-selective full muscarinic agonists, receptor subtype not given): potentiated in an equivalent fashion | cooperatively factor for hM4 receptors (hM4 receptors; estimated, FLIPR, ACh curves, AV12 Gα15 hM4, duplicates, at least three experiments): 34.5±3.5 | allosteric effect on ACh response (hM1 receptors): No significant allosteric effect | allosteric effect on ACh response (hM3 receptors): No significant allosteric effect | allosteric effect on ACh response (hM5 receptors): No significant allosteric effect | allosteric effect on ACh response (hM2 receptors): modest allosteric effect
Compound: COc1nc2sc(C(=O)NC3CC3)c(N)c2c(C)c1Cl [Example 1, 3-Amino-5-chloro-6-methoxy-4-methyl-thieno[2,3-b]pyridine-2-carboxylic acid cyclopropylamide]
